According to article PMC11672724, “Antiparasitic Activities of Acyl Hydrazones from Cinnamaldehydes and Structurally Related Fragrances” (Antibiotics, 2024):

Tests used:
[1] = system: T. gondii RH strain tachyzoites; test: Toxoplasma gondii cells drug testing assay (infection index in Vero cells, 72 h); assay type: cell-based; conditions: for IC50: Toxoplasma gondii, Vero, IC50 ± SD, three independent experiments, 72 h; for SI = selectivity index (Vero/T. gondii): ratio IC50 Vero / IC50 T. gondii
Procedure: Cells of the Vero cell line (ATCC® CCL81™, Manassas, VA, USA) were used to cultivate T. gondii RH strain tachyzoites. Vero cells were maintained in complete RPMI 1640 medium (Thermo Fisher Scientific, Waltham, MA, USA). For cell cultivation, 96-well plates were prepared with 5 × 10^3 cells per well in 200 μL of RPMI 1640 medium, then incubated at 37 °C and 5% CO2 for 24 h. The medium was then removed, and cells were washed with phosphate-buffered saline (PBS). Next, RPMI 1640 medium with 2% FBS and parasites at a 5:1 parasite-to-cell ratio were added. After a 5 h incubation at 37 °C and 5% CO2, cells were washed with PBS and subjected to further treatments. […] After incubation at 37 °C and 5% CO2 for 72 h, cells were washed with PBS, fixed in 10% formalin, and stained with 1% toluidine blue. An inverted photomicroscope was used to assess cell infection and to determine the infection index (number of infected cells out of 200 counted cells). The inhibition percentage was calculated as follows:Inhibition (%) = [(I Control − I Experimental)/I Control] × 100 where “I Control” represents the infection index of untreated cells, and “I Experimental” represents the infection index of cells treated with test compounds. The effects of the compounds on parasite growth are expressed as IC50 values derived from three independent experiments.

Vero monkey kidney cells = test: Vero cell cytotoxicity (MTT assay, 72 h); assay type: cell-based; conditions: Primates, IC50 ± SD
Procedure: To assess the test compounds’ cytotoxicity, MTT assays were performed. The Vero cells and macrophages were cultivated for 24 h at 37 °C in RPMI 1640 media with 10% FBS and 5% CO2 in 96-well plates (5 × 10^3 cells/well/200 μL). Following a washing step with PBS, the cells were treated with test compounds at different concentrations (50, 25, 12.5, 6.25, 3.13, 1.65, and 0.75 μg /mL) in 10% FBS medium for 72 h. Negative control cells were only given media with 2% FBS and 1% DMSO. The cells were cultured for 4 h after the supernatant was disposed of, and 50 μL of RPMI 1640 media containing 14 μL MTT (5 mg/mL) was added. After removing the supernatant once again, 150 μL of DMSO was added. IC50 values were determined from three independent experiments.

L. major promastigotes = test: Leishmania major promastigote assay (MTT, 72 h); assay type: cell-based; conditions: for IC50: 72 h, IC50 ± SD, MTT
Procedure: (§1) Promastigotes of L. major were obtained from a patient (February 2016) and cultured at 26 °C in Schneider’s Drosophila medium (Invitrogen, Carlsbad, CA, USA) supplemented with 10% heat-inactivated fetal bovine serum (FBS, Invitrogen, USA) and antibiotics, with weekly transfers in a tissue culture flask. Promastigotes were cryopreserved in liquid nitrogen at a concentration of 3 × 10^6 parasites/mL. Virulent L. major parasites were maintained by serial passage in female BALB/c mice, achieved by injecting hind footpads with 1 × 10^6 stationary-phase promastigotes. Amastigotes were isolated from the mice after 8 weeks, then converted to promastigotes by cultivation at 26 °C in Schneider’s medium containing 10% FBS and antibiotics. Amastigote-derived promastigotes, which underwent several in vitro passages, were used for the infection studies. BALB/c mice (both male and female) were provided by the Pharmaceutical College, King Saud University, Kingdom of Saudi Arabia, and housed in specific pathogen-free conditions following the ethical guidelines of the Qassim University Research Ethics Committee (permission number: 20-03-20).
L. major promastigotes in the logarithmic phase were cultured in phenol-red-free RPMI 1640 medium (Invitrogen, USA) with 10% FBS in 96-well plates at 10^6 cells/mL (200 μL/well, counted with a hemocytometer). Test compounds were added at final concentrations of 50, 25, 12.5, 6.25, 3.13, 1.65, and 0.75 μg/mL. […] After incubation at 26 °C for 72 h, viable promastigotes were counted using an MTT colorimetric assay. The formed formazan was dissolved in a detergent and the absorbance was measured at 570 nm using an ELISA reader. IC50 values were derived from three independent experiments.

L. major amastigotes = test: Leishmania major amastigotes in peritoneal macrophages (percentage of infected macrophages, 72 h); assay type: cell-based; conditions: Macrophage, IC50 ± SD
Procedure: as §1
Activity against amastigotes in macrophages was evaluated using peritoneal macrophages, which were harvested from 6–8-week-old BALB/c mice of different sex, and plated at 5 × 10^4 cells/well in 96-well plates containing phenol-red-free RPMI 1640 medium with 10% FBS. After 4 h at 37 °C and 5% CO2 to promote adhesion, cells were washed with PBS, and 200 μL of an L. major promastigote solution (10 promastigotes per macrophage) was added. Plates were incubated for 24 h at 37 °C in a 5% CO2 environment to allow infection and amastigote differentiation. Infected cells were then washed with PBS and overlaid with RPMI 1640 medium containing the test compounds at the same concentrations as applied for the experiments with promastigotes, followed by incubation at 37 °C and 5% CO2 for 72 h. […] IC50 values were calculated from three independent experiments.

macrophages = test: Macrophage cytotoxicity (MTT assay, 72 h); assay type: cell-based, BALB/c mice; conditions: Mus musculus, IC50 ± SD
Procedure: Plates were incubated for 24 h at 37 °C in a 5% CO2 environment to allow infection and amastigote differentiation. Infected cells were then washed with PBS and overlaid with RPMI 1640 medium containing the test compounds at the same concentrations as applied for the experiments with promastigotes, followed by incubation at 37 °C and 5% CO2 for 72 h. […] The percentage of infected macrophages was determined microscopically after fixation, Giemsa staining, and medium removal. IC50 values were calculated from three independent experiments. To assess the test compounds’ cytotoxicity, MTT assays were performed. […] Negative control cells were only given media with 2% FBS and 1% DMSO. The cells were cultured for 4 h after the supernatant was disposed of, and 50 μL of RPMI 1640 media containing 14 μL MTT (5 mg/mL) was added. After removing the supernatant once again, 150 μL of DMSO was added. IC50 values were determined from three independent experiments.

SMILES	IC50 (L. major promastigotes; Leishmania major)	IC50 (L. major amastigotes)	melting point	IC50 (L. major promastigotes)	IC50 [1]	SI = selectivity index (Vero/T. gondii) [1]	IC50 (Vero monkey kidney cells)	IC50 (macrophages)	SI (promastigotes) = selectivity index (macrophages/L. major promastigotes) (L. major promastigotes; ratio IC50 macrophages / IC50 promastigotes)	activity against T. gondii (in words) [1]
CN(C)c1ccc(/C=C/C=N/NC(=O)c2cccc(Cl)c2)cc1 [Compound 2k, (E)-N′-(4-Dimethylaminocinnamylidene)-3-chlorobenzoylhydrazide]	> 40.3 µM	> 40.3 µM	210 °C	–	> 40.3 µM	–	> 40.3 µM	> 40.3 µM	–	–
O=C(N/N=C/C=C/c1ccccc1)c1cccc(F)c1 [Compound 2i, (E)-N′-(Cinnamylidene)-3-fluorobenzoylhydrazide]	> 49.2 µM	> 49.2 µM	205 to 206 °C	–	39.1 ± 6.4 µM	1.1	44 ± 6.7 µM	> 49.2 µM	–	–
CN(C)c1ccc(/C=C/C=N/NC(=O)c2cccc(F)c2)cc1 [Compound 2j, (E)-N′-(4-Dimethylaminocinnamylidene)-3-fluorobenzoylhydrazide]	> 42.4 µM	> 42.4 µM	208 °C	–	> 42.4 µM	–	> 42.4 µM	> 42.4 µM	–	–
O=C(N/N=C/C=C/c1ccccc1)c1cccc(O)c1 [Compound 2e, (E)-N′-(Cinnamylidene)-3-hydroxybenzoylhydrazide]	> 49.6 µM	> 49.6 µM	249 to 250 °C	–	> 49.6 µM	–	46.2 ± 6.4 µM	> 49.6 µM	–	inactive
CN(C)c1ccc(/C=C/C=N/NC(=O)c2ccccc2F)cc1 [Compound 2h, (E)-N′-(4-Dimethylaminocinnamylidene)-2-fluorobenzoylhydrazide]	> 64.2 µM	> 64.2 µM	205 to 206 °C	–	55.2 ± 9.7 µM	0.98	54.1 ± 9.1 µM	> 64.2 µM	–	–
CN(C)c1ccc(/C=C/C=N/NC(=O)c2cccc(O)c2)cc1 [Compound 2f, (E)-N′-(4-Dimethylaminocinnamylidene)-3-hydroxybenzoylhydrazide]	> 42.7 µM	> 42.7 µM	257 to 258 °C	–	> 42.7 µM	–	40.1 ± 6.8 µM	> 42.7 µM	–	inactive

More lines, main results first:

IC50 (L. major promastigotes; Leishmania major)	IC50 (L. major amastigotes)	melting point	IC50 (L. major promastigotes)	SMILES	IC50 [1]	SI = selectivity index (Vero/T. gondii) [1]	IC50 (Vero monkey kidney cells)	IC50 (macrophages)	SI (promastigotes) = selectivity index (macrophages/L. major promastigotes) (L. major promastigotes; ratio IC50 macrophages / IC50 promastigotes)	activity against T. gondii (in words) [1]
> 58.8 µM	> 58.8 µM	82 to 83 °C	–	CC(C)Cc1ccc(CC(C)/C=N/NC(=O)c2ccccc2F)cc1 (stereo not drawn) [Compound 3d, N′-2-Methyl-3-[4-(2-methylpropyl)phenyl]propanylidene-2-fluorobenzoylhydrazide]	46.3 ± 5.5 µM	1.2	56.1 ± 10.4 µM	> 58.8 µM	–	–
> 61.8 µM	> 61.8 µM	122 to 123 °C	–	CC(C)Cc1ccc(CC(C)/C=N/NC(=O)c2ccncc2)cc1 (stereo not drawn) [Compound 3g, N′-2-Methyl-3-[4-(2-methylpropyl)phenyl]propanylidene-isonicotinoylhydrazide]	60.6 ± 10.1 µM	–	> 61.8 µM	> 61.8 µM	–	–
> 61.7 µM	> 61.7 µM	196 to 197 °C	–	CC(C)c1cccc(C(C)C/C=N/NC(=O)c2cccc(O)c2)c1 (stereo not drawn) [Compound 4c, N′-3-(3-Isopropylphenyl)butanylidene-3-hydroxybenzoylhydrazide]	> 61.7 µM	–	29.1 ± 2.6 µM	> 61.7 µM	–	–
> 59.1 µM	58.6 ± 8.6 µM	160 to 161 °C	–	CC(C)Cc1ccc(CC(C)/C=N/NC(=O)c2ccccc2O)cc1 (stereo not drawn) [Compound 3b, N′-2-Methyl-3-[4-(2-methylpropyl)phenyl]propanylidene-2-hydroxybenzoylhydrazide]	13.7 ± 2.2 µM	1.8	24.6 ± 3.3 µM	> 59.1 µM	–	–
< 30 µM	> 56 µM	88 to 89 °C	29.1 ± 3.3 µM	CC(C)Cc1ccc(CC(C)/C=N/NC(=O)c2cccc(Cl)c2)cc1 (stereo not drawn) [Compound 3f, N′-2-Methyl-3-[4-(2-methylpropyl)phenyl]propanylidene-3-chlorobenzoylhydrazide]	22 ± 3.3 µM	2.3	50.2 ± 7.7 µM	> 56 µM	>1.9	–
> 59.1 µM	> 59.1 µM	182 to 183 °C	–	CC(C)Cc1ccc(CC(C)/C=N/NC(=O)c2cccc(O)c2)cc1 (stereo not drawn) [Compound 3c, N′-2-Methyl-3-[4-(2-methylpropyl)phenyl]propanylidene-3-hydroxybenzoylhydrazide]	55.3 ± 9.4 µM	–	> 59.1 µM	> 59.1 µM	–	–
